Experimental findings from patent US20240285688A1, “Extensive whey protein hydrolysate with tolerogenic peptides” (N.V. Nutricia, priority 2019, published 2024) are described below.

Peptide text beside a SMILES is read from it.

The data set is described as follows: Presence of tolerogenic betalactoglobulin peptides in feed, retentate and permeate of membrane ultrafiltration (micro LC-MS ESI MS2). Format: physicochemical. The following applies: Example 3: urea (8 M) added after hydrolysis and before ultrafiltration. Here is the method:
In a Multifors reactor (Infors HT) 500 gram of whey protein powder (WPC83, Arla Foods, with about 80% whey protein) was dissolved in water at a final concentration of about 4 wt % at a temperature of about 75° C., giving a protein concentration of about 3.2 wt %. After dissolving the mixture was cooled to 58° C. and the pH was adjusted to neutral (pH 7-8). Proteolytic enzymes were added (Trypsin, Neova Technologies Inc) to a concentration of 33 mg/100 g solution and hydrolysis took place for about 105 min under continuous stirring. During hydrolysis the pH was kept constant. After hydrolysis the mixture was quickly cooled to 4° C.
Next the mixture of whey protein hydrolysate and proteolytic enzymes was filtrated. 200 ml of the mixture (the feed) was filtrated for 20 minutes on a MMS Triple System membrane filtration unit (MMS AG Membrane Systems) provided with an ultrafiltration membrane from Koch (Koch: HFK-131, a flat sheet polyethersulfone ultrafiltration membrane with a molecular weight cut off of 10 kDa) under a pressure of 8 bars. A one-layer filtration setup was used and the retentate was circulated during filtration. Each membrane was used only once to promote reproducibility. The filtration cooling system was set to 15° C. The permeate was weighted, MMS filtration software was used for the registering of the permeate throughput. Samples were taken of the mixture before membrane filtration (the feed), and of the permeate and retentate after the membrane filtration step. About 93% of permeate (wt % of total feed) was produced comprising about 85 wt % of peptides (wt % of the peptides in the feed). Samples were stored at −50° C. for further analysis.
The presence of tolerogenic betalactoglobulin peptides in the samples was analyzed according to Gouw et al., 2018, Clin. Exp. Allergy 48:[…], with the modification that instead of nanoLC-ESI MS2, micro LC-MS ESI MS2 was used. The presence of 5 specific peptides was tested (region overlapping with the 13-48 AA acid region of betalactoglobulin in bold):
The process of example 1 was repeated. The only difference was that Citrem (Grinsted® Citrem, DuPont) was added at an amount of about 3.6 gram before the pH adjustment and the addition of the proteolytic enzymes. […]
The process of example 2a was repeated, the only difference being that instead of the emulsifier, 51 gram of urea (source Merck) was dissolved per 100 g water (8 M) and added after the hydrolysis step and before ultrafiltration. […] All peptides were detected in the retentate and feed, and peptides 1, 3, 4 and 5 of example 1 (i.e. SEQ ID NOs 66, 68, 69 and 70 with X=L) were detected in the permeate, in an amount of about 1-10 wt. % of the concentration of these peptides in the feed. […]
For the compound `CC[C@H](C)[C@H](NC(=O)[C@H](CC(=O)O)NC(=O)[C@H](CC(C)C)NC(=O)CNC(=O)[C@H](CCCCN)NC(=O)[C@H](CCSC)NC(=O)[C@@H](NC(=O)[C@H](CCC(N)=O)NC(=O)[C@@H](NC(=O)[C@@H](NC(=O)[C@@H](NC(=O)[C@@H](N)CC(C)C)[C@@H](C)CC)C(C)C)[C@@H](C)O)[C@@H](C)O)C(=O)N[C@@H](CCC(N)=O)C(=O)N[C@@H](CCCCN)C(=O)N[C@H](C(=O)N[C@@H](C)C(=O)NCC(=O)N[C@H](C(=O)N[C@@H](Cc1c[nH]c2ccccc12)C(=O)N[C@@H](Cc1ccc(O)cc1)C(=O)N[C@@H](CO)C(=O)N[C@@H](CC(C)C)C(=O)N[C@@H](C)C(=O)N[C@@H](CCSC)C(=O)N[C@@H](C)C(=O)N[C@@H](C)C(=O)N[C@@H](CO)C(=O)O)[C@@H](C)O)C(C)C` [Peptide 1] (H-LIVTQTMKGLDIQKVAGTWYSLAMAAS-OH; N-terminus and C-terminus assumed), the “presence of the tolerogenic peptides in the permeate” value is “detected”. Turning to `CC[C@H](C)[C@H](NC(=O)[C@H](CC(=O)O)NC(=O)[C@H](CC(C)C)NC(=O)CNC(=O)[C@H](CCCCN)NC(=O)[C@H](CCSC)NC(=O)[C@@H](N)[C@@H](C)O)C(=O)N[C@@H](CCC(N)=O)C(=O)N[C@@H](CCCCN)C(=O)N[C@H](C(=O)N[C@@H](C)C(=O)NCC(=O)N[C@H](C(=O)N[C@@H](Cc1c[nH]c2ccccc12)C(=O)N[C@@H](Cc1ccc(O)cc1)C(=O)N[C@@H](CO)C(=O)N[C@@H](CC(C)C)C(=O)N[C@@H](C)C(=O)N[C@@H](CCSC)C(=O)N[C@@H](C)C(=O)N[C@@H](C)C(=O)N[C@@H](CO)C(=O)N[C@@H](CC(=O)O)C(=O)N[C@H](C(=O)N[C@@H](CO)C(=O)N[C@@H](CC(C)C)C(=O)N[C@@H](CC(C)C)C(=O)N[C@@H](CC(=O)O)C(=O)N[C@@H](C)C(=O)N[C@@H](CCC(N)=O)C(=O)O)[C@@H](C)CC)[C@@H](C)O)C(C)C` [Peptide 3] (H-TMKGLDIQKVAGTWYSLAMAASDISLLDAQ-OH; N-terminus and C-terminus assumed), the “presence of the tolerogenic peptides in the permeate” value is recorded as “detected”. For `CC[C@H](C)[C@H](NC(=O)[C@H](CC(=O)O)NC(=O)[C@H](CC(C)C)NC(=O)CNC(=O)[C@H](CCCCN)NC(=O)[C@H](CCSC)NC(=O)[C@@H](N)[C@@H](C)O)C(=O)N[C@@H](CCC(N)=O)C(=O)N[C@@H](CCCCN)C(=O)N[C@H](C(=O)N[C@@H](C)C(=O)NCC(=O)N[C@H](C(=O)N[C@@H](Cc1c[nH]c2ccccc12)C(=O)N[C@@H](Cc1ccc(O)cc1)C(=O)N[C@@H](CO)C(=O)N[C@@H](CC(C)C)C(=O)N[C@@H](C)C(=O)N[C@@H](CCSC)C(=O)N[C@@H](C)C(=O)N[C@@H](C)C(=O)N[C@@H](CO)C(=O)N[C@@H](CC(=O)O)C(=O)N[C@H](C(=O)N[C@@H](CO)C(=O)N[C@@H](CC(C)C)C(=O)N[C@@H](CC(C)C)C(=O)O)[C@@H](C)CC)[C@@H](C)O)C(C)C` [Peptide 4] (H-TMKGLDIQKVAGTWYSLAMAASDISLL-OH; N-terminus and C-terminus assumed) the value was “detected”; for `CC[C@H](C)[C@H](NC(=O)[C@H](CC(=O)O)NC(=O)[C@H](CC(C)C)NC(=O)CNC(=O)[C@H](CCCCN)NC(=O)[C@H](CCSC)NC(=O)[C@@H](NC(=O)[C@H](CCC(N)=O)NC(=O)[C@@H](NC(=O)[C@@H](NC(=O)[C@@H](NC(=O)[C@@H](N)CC(C)C)[C@@H](C)CC)C(C)C)[C@@H](C)O)[C@@H](C)O)C(=O)N[C@@H](CCC(N)=O)C(=O)N[C@@H](CCCCN)C(=O)N[C@H](C(=O)N[C@@H](C)C(=O)NCC(=O)N[C@H](C(=O)N[C@@H](Cc1c[nH]c2ccccc12)C(=O)N[C@@H](Cc1ccc(O)cc1)C(=O)N[C@@H](CO)C(=O)N[C@@H](CC(C)C)C(=O)N[C@@H](C)C(=O)N[C@@H](CCSC)C(=O)N[C@@H](C)C(=O)N[C@@H](C)C(=O)N[C@@H](CO)C(=O)N[C@@H](CC(=O)O)C(=O)N[C@H](C(=O)N[C@@H](CO)C(=O)N[C@@H](CC(C)C)C(=O)N[C@@H](CC(C)C)C(=O)O)[C@@H](C)CC)[C@@H](C)O)C(C)C` [Peptide 5] (H-LIVTQTMKGLDIQKVAGTWYSLAMAASDISLL-OH; N-terminus and C-terminus assumed), “detected”.
